Columns and labels:
TEM-1 beta-lactamase = molecular target: T1, TEM-1 beta-lactamase (Escherichia coli, UniProt P62593); type: biochemical; settings: for reduction of the TEM-1 activity: inhibitor 21.5 μM final
T1 construct: made in house
Method: A screening of new TEM-1 ? -lactamase inhibitors was carried out by the process of the invention. This enzyme was expressed in vitro as described by Zubay by using 300 μg of mRNA in a final translation volume of 5 ml. […] Then 3 μl of the translation mixture were added in each microtitration plaque well and the mixture was incubated 3 minutes at 25° C. The volume was then completed to 58 μl with a revelation solution (final concentration: NaP 40 mM pH 7.0, 100 μg/ml of nitrocephine and 0.25 mM DNSO). The reaction was followed by spectrophotometry at 486 nm. Three controls were carried out: one without translation extract (therefore without enzyme), one with the substrate alone, and one without any potential inhibitor.

native TEM-1 enzyme = molecular target: T2, native TEM-1 enzyme (Escherichia coli, UniProt P62593); experiment: Characterization of inhibitor on native TEM-1 enzyme expressed in vitro, nitrocephine test; type: biochemical; settings: read-out: inhibition of native TEM-1 enzyme
T2 construct: made in house
Method: For this 5 μl of a translation mixture expressing either the native enzyme or one of the two mutants were separately incubated at 25° C. for 3 minutes in a final volume of 500 μl of buffer I (final concentration: NaP 50 mM pH 7.0, 1.5 μM potential inhibitor #1). Then 100 μg/ml of nitrocephine and 0.25 mM final of DMSO were added, and the reaction was followed by spectrophotometry at 486 nm. The obtained results were expressed in maximum activity percentage measured on the enzyme in the absence of inhibitor.

T1 sequence (P62593 24-286 limits assumed): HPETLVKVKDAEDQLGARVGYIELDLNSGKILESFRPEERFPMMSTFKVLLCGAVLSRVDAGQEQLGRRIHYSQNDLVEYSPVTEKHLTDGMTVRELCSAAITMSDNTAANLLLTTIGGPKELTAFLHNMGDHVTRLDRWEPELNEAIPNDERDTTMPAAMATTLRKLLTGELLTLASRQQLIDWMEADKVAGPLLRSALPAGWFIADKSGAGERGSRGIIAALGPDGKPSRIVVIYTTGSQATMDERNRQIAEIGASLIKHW
T2 sequence (P62593 24-286 limits assumed): as above

SMILES	reduction of the TEM-1 activity versus control without inhibitor (TEM-1 beta-lactamase; inhibitor 0.4 μM final, 3 minutes at 25° C. preincubation) [%]	reduction of the TEM-1 activity (TEM-1 beta-lactamase) [%]	inhibition at 1.5 µM (native TEM-1 enzyme) [%]
O=C(O)[C@H]1/C(=C/CO)O[C@@H]2CC(=O)N21 [inhibitor #1, clavulanic acid]	52	80	87
CC1(C)[C@H](C(=O)O)N2C(=O)C[C@H]2S1(=O)=O [inhibitor #2, sulbactam]		73	
